Test results: patent US10363239B2, “Method for inhibiting growth of cancer cells” (Pain Therapeutics, Inc., priority 2013, dated 2019)

The molecules below were run on mu opiate receptor (MOR) (assay: MOR agonist activity using [35S]GTPγS binding assay in striatal membranes). Settings: 0.1 μM compound.
Type: biochemical
How it was run: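 Striatal membranes (200 μg) were preincubated 5 min at 30 °C in HEPES pH 7.5 with 100 mM NaCl, 1 mM MgCl2 and 0.5 nM [35S]GTPγS, then 5 min more with 0.1–10 μM compound. Gαo was immunoprecipitated and bound radioactivity counted by scintillation.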
`CC1CCC(C)C(OCC(O)CN2CC(C)OC(C)C2)C1` (centres unmarked) [Compound A0022] was tested, and the “MOR agonist activity ([35S]GTPγS binding), FLNA-Binding Compound as Agonist 0.1 μM” value was 154.1%.
With `CC1CN(CC(O)COc2ccccc2Br)CC(C)O1` (centres unmarked) [Compound A0043] the “MOR agonist activity ([35S]GTPγS binding), FLNA-Binding Compound as Agonist 0.1 μM” value was 183.3%.

Same assay, conditions: 0.1 μM compound relative to DAMGO
`CC1CCC(C)C(OCC(O)CN2CC(C)OC(C)C2)C1` (centres unmarked) [Compound A0022] was tested, and the “% DAMGO (0.1 μM)” value was 90.0%.
With `CC1CN(CC(O)COc2ccccc2Br)CC(C)O1` (centres unmarked) [Compound A0043] the “% DAMGO (0.1 μM)” value was 93.4%.

Same assay, conditions: 0.1 μM; average of two runs
In the case of `C=CCN1CCC2(CC1)OCCN2S(=O)(=O)c1ccc(C)cc1` [Compound 10], the “MOR agonist activity, FLNA-Binding Compound as Agonist 0.1 μM (preliminary study)” value is reported as 163.1%.

Same assay, conditions: 1 μM + βNFA; average of two runs
For `C=CCN1CCC2(CC1)OCCN2S(=O)(=O)c1ccc(C)cc1` [Compound 10], the “MOR agonist activity, FLNA-Binding Compound as Agonist 1 μM + βNFA (preliminary study)” value was 60.4%.

Same assay, conditions: 1 μM compound
In the case of `CC1CCC(C)C(OCC(O)CN2CC(C)OC(C)C2)C1` (centres unmarked) [Compound A0022], the “MOR agonist activity ([35S]GTPγS binding), FLNA-Binding Compound as Agonist 1 μM” value is reported as 216.0%.
`CC1CN(CC(O)COc2ccccc2Br)CC(C)O1` (centres unmarked) [Compound A0043] was tested, and the “MOR agonist activity ([35S]GTPγS binding), FLNA-Binding Compound as Agonist 1 μM” value was 223.8%.

Same assay, conditions: 1 μM compound + 1 μM β-funaltrexamine
For `CC1CCC(C)C(OCC(O)CN2CC(C)OC(C)C2)C1` (centres unmarked) [Compound A0022], the “MOR agonist activity ([35S]GTPγS binding), FLNA-Binding Compound as Agonist 1 μM + BFNA” value was 28.0%.
`CC1CN(CC(O)COc2ccccc2Br)CC(C)O1` (centres unmarked) [Compound A0043] was tested, and the “MOR agonist activity ([35S]GTPγS binding), FLNA-Binding Compound as Agonist 1 μM + BFNA” value was 89.1%.

Same assay, conditions: 1 μM compound + BFNA relative to DAMGO + BFNA
`CC1CCC(C)C(OCC(O)CN2CC(C)OC(C)C2)C1` (centres unmarked) [Compound A0022] was tested, and the “% DAMGO + BFNA” value was 53.7%.
`CC1CN(CC(O)COc2ccccc2Br)CC(C)O1` (centres unmarked) [Compound A0043] was tested, and the “% DAMGO + BFNA” value was 120.6%.

Same assay, conditions: 1 μM compound relative to DAMGO
`CC1CCC(C)C(OCC(O)CN2CC(C)OC(C)C2)C1` (centres unmarked) [Compound A0022] was tested, and the “% DAMGO (1 μM)” value was 80.9%.
For `CC1CN(CC(O)COc2ccccc2Br)CC(C)O1` (centres unmarked) [Compound A0043], the “% DAMGO (1 μM)” value was 81.1%.

Same assay, conditions: 1 μM; average of two runs
In the case of `C=CCN1CCC2(CC1)OCCN2S(=O)(=O)c1ccc(C)cc1` [Compound 10], the “MOR agonist activity, FLNA-Binding Compound as Agonist 1 μM (preliminary study)” value is reported as 191.8%.

Same assay, conditions: Series B; 0.1 μM compound, relative to DAMGO
`COc1cc(F)ccc1C(=O)CC1c2c(cc3c(c2OC)OCO3)CC[N+]1(C)C` (centres unmarked) [Compound B0007] was tested, and the “% DAMGO (0.1 μM)” value was 95.3%.
For `CCOc1ccc(C(=O)CC2c3c(cc4c(c3OC)OCO4)CC[N+]2(C)C)cc1F` (centres unmarked) [Compound B0020], the “% DAMGO (0.1 μM)” value was 30.1%.
For `COc1c2c(cc3c1C(CC(=O)Cc1ccccc1C)[N+](C)(C)CC3)OCO2` (centres unmarked) [Compound B0031], the “% DAMGO (0.1 μM)” value was 109.6%.

Same assay, conditions: Series B; 0.1 μM compound; [35S]GTPγS binding to Gαo, striatal membranes
For `COc1cc(F)ccc1C(=O)CC1c2c(cc3c(c2OC)OCO3)CC[N+]1(C)C` (centres unmarked) [Compound B0007], the “MOR agonist activity, percent [35S]GTPγS binding at the stated compound concentration” value (shortened to “MOR agonist activity, percent”) was 168.3%.
In the case of `CCOc1ccc(C(=O)CC2c3c(cc4c(c3OC)OCO4)CC[N+]2(C)C)cc1F` (centres unmarked) [Compound B0020], the “MOR agonist activity, percent” value is reported as 51.6%.
For `COc1c2c(cc3c1C(CC(=O)Cc1ccccc1C)[N+](C)(C)CC3)OCO2` (centres unmarked) [Compound B0031], the “MOR agonist activity, percent” value was 210.8%.

Same assay, conditions: Series B; 1 μM compound + 1 μM β-FNA
`COc1cc(F)ccc1C(=O)CC1c2c(cc3c(c2OC)OCO3)CC[N+]1(C)C` (centres unmarked) [Compound B0007] was tested, and the “MOR agonist activity, percent” value was 64.5%.
With `CCOc1ccc(C(=O)CC2c3c(cc4c(c3OC)OCO4)CC[N+]2(C)C)cc1F` (centres unmarked) [Compound B0020] the “MOR agonist activity, percent” value was 24.9%.
For `COc1c2c(cc3c1C(CC(=O)Cc1ccccc1C)[N+](C)(C)CC3)OCO2` (centres unmarked) [Compound B0031], the “MOR agonist activity, percent” value was 28.8%.

Same assay, conditions: Series B; 1 μM compound + β-FNA, relative to DAMGO + BFNA
With `COc1cc(F)ccc1C(=O)CC1c2c(cc3c(c2OC)OCO3)CC[N+]1(C)C` (centres unmarked) [Compound B0007] the “% DAMGO + BFNA” value was 98.2%.
With `CCOc1ccc(C(=O)CC2c3c(cc4c(c3OC)OCO4)CC[N+]2(C)C)cc1F` (centres unmarked) [Compound B0020] the “% DAMGO + BFNA” value was 47.8%.
For `COc1c2c(cc3c1C(CC(=O)Cc1ccccc1C)[N+](C)(C)CC3)OCO2` (centres unmarked) [Compound B0031], the “% DAMGO + BFNA” value was 65.6%.

Same assay, conditions: Series B; 1 μM compound, relative to DAMGO
For `COc1cc(F)ccc1C(=O)CC1c2c(cc3c(c2OC)OCO3)CC[N+]1(C)C` (centres unmarked) [Compound B0007], the “% DAMGO (1 μM)” value was 86.1%.
With `CCOc1ccc(C(=O)CC2c3c(cc4c(c3OC)OCO4)CC[N+]2(C)C)cc1F` (centres unmarked) [Compound B0020] the “% DAMGO (1 μM)” value was 68.0%.
In the case of `COc1c2c(cc3c1C(CC(=O)Cc1ccccc1C)[N+](C)(C)CC3)OCO2` (centres unmarked) [Compound B0031], the “% DAMGO (1 μM)” value is reported as 99.6%.

Same assay, conditions: Series B; 1 μM compound; [35S]GTPγS binding to Gαo, striatal membranes
For `COc1cc(F)ccc1C(=O)CC1c2c(cc3c(c2OC)OCO3)CC[N+]1(C)C` (centres unmarked) [Compound B0007], the “MOR agonist activity, percent” value was 223.3%.
`CCOc1ccc(C(=O)CC2c3c(cc4c(c3OC)OCO4)CC[N+]2(C)C)cc1F` (centres unmarked) [Compound B0020] was tested, and the “MOR agonist activity, percent” value was 181.6%.
With `COc1c2c(cc3c1C(CC(=O)Cc1ccccc1C)[N+](C)(C)CC3)OCO2` (centres unmarked) [Compound B0031] the “MOR agonist activity, percent” value was 272.0%.

Same assay, conditions: preliminary study
`C=CCN1CCC2(CC1)OCCN2S(=O)(=O)c1ccc(C)cc1` [Compound 10] was tested, and the “MOR agonist activity (conclusion in words)” value was “MOR agonists”.

Each molecule was assayed against FLNA pentapeptide of SEQ ID NO: 1 (Bn-VAKGL) (Homo sapiens, UniProt P21333) (assay: FITC-NLX-based FLNA screening assay (inhibition of FITC-naloxone binding to Bn-VAKGL on streptavidin plates)). Settings: FLNA-binding compound 0.01 μM; 10 nM FITC-NLX; read-out: Percent Binding Inhibition.
In the case of `CC1CCC(C)C(OCC(O)CN2CC(C)OC(C)C2)C1` (centres unmarked) [Compound A0022], the inhibition at 0.01 µM is reported as 41.9%.
Work on `CC1CN(CC(O)COc2ccccc2Br)CC(C)O1` (centres unmarked) [Compound A0043] yielded an inhibition at 0.01 µM of 46.4%.

Same assay, conditions: FLNA-binding compound 0.1 μM; 10 nM FITC-NLX; read-out: Percent Binding Inhibition
`CC1CCC(C)C(OCC(O)CN2CC(C)OC(C)C2)C1` (centres unmarked) [Compound A0022] gave an inhibition at 0.1 µM of 49.7%.
`CC1CN(CC(O)COc2ccccc2Br)CC(C)O1` (centres unmarked) [Compound A0043] gave an inhibition at 0.1 µM of 48.9%.

Same assay, conditions: FLNA-binding compound 1 μM; 10 nM FITC-NLX; read-out: Percent Binding Inhibition
With `CC1CCC(C)C(OCC(O)CN2CC(C)OC(C)C2)C1` (centres unmarked) [Compound A0022] the inhibition at 1 µM was 56.8%.
With `CC1CN(CC(O)COc2ccccc2Br)CC(C)O1` (centres unmarked) [Compound A0043] the inhibition at 1 µM was 51.8%.

Same assay, conditions: preliminary study
With `C=CCN1CCC2(CC1)OCCN2S(=O)(=O)c1ccc(C)cc1` [Compound 10] the “Binding to FLNA (conclusion in words)” value was “bind well to FLNA”.

Same assay, conditions: read-out: Percent Binding Inhibition, FLNA-binding compound 0.01 μM; 10 nM FITC-NLX
Molecule `COc1cc(F)ccc1C(=O)CC1c2c(cc3c(c2OC)OCO3)CC[N+]1(C)C` (centres unmarked) [Compound B0007] has an inhibition at 0.01 µM of 43.6%.
For `CCOc1ccc(C(=O)CC2c3c(cc4c(c3OC)OCO4)CC[N+]2(C)C)cc1F` (centres unmarked) [Compound B0020], the inhibition at 0.01 µM was 38.1%.
`COc1c2c(cc3c1C(CC(=O)Cc1ccccc1C)[N+](C)(C)CC3)OCO2` (centres unmarked) [Compound B0031] gave an inhibition at 0.01 µM of 36.2%.

Same assay, conditions: read-out: Percent Binding Inhibition, FLNA-binding compound 0.1 μM; 10 nM FITC-NLX
Molecule `COc1cc(F)ccc1C(=O)CC1c2c(cc3c(c2OC)OCO3)CC[N+]1(C)C` (centres unmarked) [Compound B0007] has an inhibition at 0.1 µM of 53.1%.
For `CCOc1ccc(C(=O)CC2c3c(cc4c(c3OC)OCO4)CC[N+]2(C)C)cc1F` (centres unmarked) [Compound B0020], the inhibition at 0.1 µM was 45.5%.
Work on `COc1c2c(cc3c1C(CC(=O)Cc1ccccc1C)[N+](C)(C)CC3)OCO2` (centres unmarked) [Compound B0031] yielded an inhibition at 0.1 µM of 44.2%.

Same assay, conditions: read-out: Percent Binding Inhibition, FLNA-binding compound 1 μM; 10 nM FITC-NLX
Work on `COc1cc(F)ccc1C(=O)CC1c2c(cc3c(c2OC)OCO3)CC[N+]1(C)C` (centres unmarked) [Compound B0007] yielded an inhibition at 1 µM of 57.3%.
Molecule `CCOc1ccc(C(=O)CC2c3c(cc4c(c3OC)OCO4)CC[N+]2(C)C)cc1F` (centres unmarked) [Compound B0020] has an inhibition at 1 µM of 50.6%.
`COc1c2c(cc3c1C(CC(=O)Cc1ccccc1C)[N+](C)(C)CC3)OCO2` (centres unmarked) [Compound B0031] showed an inhibition at 1 µM of 50.5%.
